Tested on: 379773-124-R-J2-PDC spheroid viability
Test: Anticancer human tumor 379773-124-R-J2-PDC patient-derived endometrial carcinoma cell line growth inhibition [POLQ]
Settings: spheroids with HUVEC and MSC; for IC50: curve of first compound; for viability, T/C: stronger effect = lower value
Method in brief: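 PDC + HUVEC + MSC complex spheroids; POLQ inhibitors ± partner drugs; top conc. at/near clinical Cmax, else 10 microM (SN-38 1 microM), half-log dilutions; 37 degrees C, 5% CO2.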

[1] = second compound 0.0316 µM, first compound 0.0316 µM
[2] = second compound 0.0316 µM, first compound 0.1 µM
[3] = second compound 0.0316 µM, first compound 0.316 µM
[4] = second compound 0.0316 µM, first compound 1 µM
[5] = second compound 0.0316 µM, first compound 3.16 µM
[6] = second compound 0.0316 µM, first compound 10 µM
[7] = second compound 0.1 µM, first compound 0.0316 µM
[8] = second compound 0.1 µM, first compound 0.1 µM
[9] = second compound 0.1 µM, first compound 0.316 µM
[10] = second compound 0.1 µM, first compound 1 µM
[11] = second compound 0.1 µM, first compound 3.16 µM
[12] = second compound 0.1 µM, first compound 10 µM
[13] = second compound 0.316 µM, first compound 0.0316 µM
[14] = second compound 0.316 µM, first compound 0.1 µM
[15] = second compound 0.316 µM, first compound 0.316 µM
[16] = second compound 0.316 µM, first compound 1 µM
[17] = second compound 0.316 µM, first compound 3.16 µM
[18] = second compound 0.316 µM, first compound 10 µM
[19] = second compound 1 µM, first compound 0.0316 µM
[20] = second compound 1 µM, first compound 0.1 µM
[21] = second compound 1 µM, first compound 0.316 µM
[22] = second compound 1 µM, first compound 1 µM
[23] = second compound 1 µM, first compound 3.16 µM
[24] = second compound 1 µM, first compound 10 µM
[25] = second compound 3.16 µM, first compound 0.0316 µM
[26] = second compound 3.16 µM, first compound 0.1 µM
[27] = second compound 3.16 µM, first compound 0.316 µM
[28] = second compound 3.16 µM, first compound 1 µM
[29] = second compound 3.16 µM, first compound 3.16 µM
[30] = second compound 3.16 µM, first compound 10 µM
[31] = second compound 10 µM, first compound 0.0316 µM
[32] = second compound 10 µM, first compound 0.1 µM
[33] = second compound 10 µM, first compound 0.316 µM
[34] = second compound 10 µM, first compound 1 µM
[35] = second compound 10 µM, first compound 3.16 µM
[36] = second compound 10 µM, first compound 10 µM
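Further: spheroids exposed to drugs for seven days before readout.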
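Wherever viability, T/C is given: percent viability relative to DMSO vehicle control taken as 100%.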

COc1cc2cc(C(=O)CCC(=O)O)sc2cc1OC + Nc1ccc(C#CCN(C(=O)Cc2ncc(C(F)(F)F)cc2C(F)(F)F)c2ccc(F)cc2)nn1
IC50 (second compound 0.0316 µM): > 10 µM | IC50 (second compound 0.1 µM): > 10 µM | IC50 (second compound 0.316 µM): > 10 µM | IC50 (second compound 1 µM): > 10 µM | IC50 (second compound 3.16 µM): > 10 µM | IC50 (second compound 10 µM): > 10 µM | viability, T/C [1]: 84.3% | viability, T/C [2]: 97.2% | viability, T/C [3]: 87.6% | viability, T/C [4]: 93.6% | viability, T/C [5]: 93.9% | viability, T/C [6]: 82.7% | viability, T/C [7]: 93.9% | viability, T/C [8]: 86% | viability, T/C [9]: 91.8% | viability, T/C [10]: 85.5% | viability, T/C [11]: 104% | viability, T/C [12]: 92.7% | viability, T/C [13]: 101% | viability, T/C [14]: 82.6% | viability, T/C [15]: 93.7% | viability, T/C [16]: 93.3% | viability, T/C [17]: 85.6% | viability, T/C [18]: 96% | viability, T/C [19]: 94.8% | viability, T/C [20]: 84% | viability, T/C [21]: 96.3% | viability, T/C [22]: 87.8% | viability, T/C [23]: 96.4% | viability, T/C [24]: 85.3% | viability, T/C [25]: 98.9% | viability, T/C [26]: 83.4% | viability, T/C [27]: 82.4% | viability, T/C [28]: 105% | viability, T/C [29]: 90.1% | viability, T/C [30]: 104% | viability, T/C [31]: 96.2% | viability, T/C [32]: 89.6% | viability, T/C [33]: 86.4% | viability, T/C [34]: 89.3% | viability, T/C [35]: 84.9% | viability, T/C [36]: 93.5%

COc1cccc2c1C(=O)c1c(O)c3c(c(O)c1C2=O)CC(O)(C(=O)CO)CC3OC1CC(N)C(O)C(C)O1 (stereo unspecified) + Cc1cccc(N(C)C(=O)C2C(O)CCN2c2nc(C)cc(C(F)(F)F)c2C#N)c1
IC50 (second compound 0.0316 µM): 0.0585 µM | IC50 (second compound 0.1 µM): 0.0635 µM | IC50 (second compound 0.316 µM): 0.052 µM | IC50 (second compound 1 µM): 0.0541 µM | IC50 (second compound 3.16 µM): 0.0483 µM | IC50 (second compound 10 µM): < 0.0316 µM | viability, T/C [1]: 80.6% | viability, T/C [2]: 22% | viability, T/C [3]: 9.56% | viability, T/C [4]: 6.15% | viability, T/C [5]: 0.89% | viability, T/C [6]: 0.14% | viability, T/C [7]: 82.8% | viability, T/C [8]: 28.3% | viability, T/C [9]: 9.45% | viability, T/C [10]: 5.6% | viability, T/C [11]: 1.37% | viability, T/C [12]: 0.84% | viability, T/C [13]: 70.5% | viability, T/C [14]: 23.1% | viability, T/C [15]: 7.91% | viability, T/C [16]: 6.47% | viability, T/C [17]: 2% | viability, T/C [18]: 1.9% | viability, T/C [19]: 74.8% | viability, T/C [20]: 20.8% | viability, T/C [21]: 9.58% | viability, T/C [22]: 5.67% | viability, T/C [23]: 0.65% | viability, T/C [24]: 1.38% | viability, T/C [25]: 69.5% | viability, T/C [26]: 15.7% | viability, T/C [27]: 7.22% | viability, T/C [28]: 7.14% | viability, T/C [29]: 1.2% | viability, T/C [30]: 0.28% | viability, T/C [31]: 48.5% | viability, T/C [32]: 12% | viability, T/C [33]: 9.32% | viability, T/C [34]: 4.59% | viability, T/C [35]: 0.51% | viability, T/C [36]: 0.38%

CCc1cc2c(N3CCc4c(cc(Cn5ccnc5)cc4-c4cn(C)nc4C(F)(F)F)C3=O)ccnc2c(OC)n1 + Nc1ccc(C#CCN(C(=O)Cc2ncc(C(F)(F)F)cc2C(F)(F)F)c2ccc(F)cc2)nn1
IC50 (second compound 0.0316 µM): > 10 µM | IC50 (second compound 0.1 µM): > 10 µM | IC50 (second compound 0.316 µM): > 10 µM | IC50 (second compound 1 µM): > 10 µM | IC50 (second compound 3.16 µM): > 10 µM | IC50 (second compound 10 µM): > 10 µM | viability, T/C [1]: 83.1% | viability, T/C [2]: 68.2% | viability, T/C [3]: 61.3% | viability, T/C [4]: 59.1% | viability, T/C [5]: 61.6% | viability, T/C [6]: 54.8% | viability, T/C [7]: 65.1% | viability, T/C [8]: 71.1% | viability, T/C [9]: 61.2% | viability, T/C [10]: 62.8% | viability, T/C [11]: 56.2% | viability, T/C [12]: 53.9% | viability, T/C [13]: 74.3% | viability, T/C [14]: 72.3% | viability, T/C [15]: 67% | viability, T/C [16]: 64.8% | viability, T/C [17]: 59.1% | viability, T/C [18]: 49.9% | viability, T/C [19]: 84.5% | viability, T/C [20]: 69% | viability, T/C [21]: 65.2% | viability, T/C [22]: 64.8% | viability, T/C [23]: 56% | viability, T/C [24]: 53.6% | viability, T/C [25]: 71.4% | viability, T/C [26]: 69.7% | viability, T/C [27]: 65.8% | viability, T/C [28]: 70.8% | viability, T/C [29]: 60% | viability, T/C [30]: 52.6% | viability, T/C [31]: 85.4% | viability, T/C [32]: 79.2% | viability, T/C [33]: 61.6% | viability, T/C [34]: 67.5% | viability, T/C [35]: 55% | viability, T/C [36]: 49.6%
